Assay results published in patent publication US8883798B2, “Pyrimidine compounds inhibiting the formation of nitric oxide and prostaglandin E2, method of production thereof and use thereof” (Ustav Organicke Chemie a Biochemie Akademie Ved CR, V.V.I., priority 2011, dated 2014).

Columns and labels:
[1] = system: production of nitric oxide (NO); experiment: Production of nitric oxide (NO) in cultures of mouse peritoneal cells stimulated with IFN-γ plus LPS (Griess reagent); type: cell-based, mice; details: Table 3B; substance 50 μmol·l^−1; IFN-g plus LPS; 24 h
How it was run: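 C57BL/6 mouse peritoneal cells (2×10^6/mL) stimulated with IFN-γ (5000 pg/mL) plus LPS (100 pg/mL), compounds at 50 μmol·l^−1. Nitrite measured by Griess reagent after 24 h, expressed as % of stimulated control (set 100%); IC50 is concentration reducing NO by 50%.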

[2] = system: production of prostaglandin E2 (PGE2); experiment: Production of prostaglandin E2 (PGE2) in cultures of mouse peritoneal cells stimulated with LPS (ELISA kit); type: cell-based, mice; details: Table 3B, 6 h
How it was run: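 C57BL/6 mouse peritoneal cells (3×10^6/mL) stimulated with LPS (10 ng/mL). PGE2 measured by ELISA.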

peritoneal cells of mice = experiment: Cell viability of mouse peritoneal cells (WST-1 kit); type: cell-based; details: Table 3B, substance 50 μmol·l^−1, 24 h
How it was run: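 C57BL/6 mouse peritoneal cells (1×10^6/mL) cultured 24 h with compounds at 50 μmol·l^−1. Viability read with WST-1 tetrazolium salt and expressed as percent of untreated control cells (100%).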

| Compound | melting point [°C] | also measured |
| --- | --- | --- |
| Cc1c(Cl)nc(/N=C/N(C)C)nc1Cl [Substance 13, 4,6-dichloro-5-methyl-2-{[(dimethylamino)methylene]amino}pyrimidine] | 84 to 86 |  |
| CCc1c(Cl)nc(/N=C/N(C)C)nc1Cl [Substance 14, 4,6-dichloro-5-ethyl-2-{[(dimethylamino)methylene]amino}pyrimidine] | 78 to 80 |  |
| CCCc1c(Cl)nc(/N=C/N(C)C)nc1Cl [Substance 15, 4,6-dichloro-2-{[(dimethylamino)methylene]amino}-5-propylpyrimidine] | 76 to 78 |  |
| CC(C)c1c(Cl)nc(/N=C/N(C)C)nc1Cl [Substance 16, 4,6-dichloro-5-isopropyl-2-{[(dimethylamino)methylene]amino}pyrimidine] | 77 to 78 |  |
| C=CCc1c(Cl)nc(/N=C/N(C)C)nc1Cl [Substance 17, 5-allyl-4,6-dichloro-2-{[(dimethylamino)methylene]amino}pyrimidine] | 80 to 81 |  |
| C#CCc1c(Cl)nc(/N=C/N(C)C)nc1Cl [Substance 18, 4,6-dichloro-2-{[(dimethylamino)methylene]amino}-5-(prop-2-yn-1-yl)pyrimidine] | 82 to 83 |  |
| CCCCc1c(Cl)nc(/N=C/N(C)C)nc1Cl [Substance 19, 5-butyl-4,6-dichloro-2-{[(dimethylamino)methylene]amino}pyrimidine] | 65 to 67 |  |
| CCC(C)c1c(Cl)nc(/N=C/N(C)C)nc1Cl (stereo not drawn) [Substance 21, 5-sec-butyl-4,6-dichloro-2-{[(dimethylamino)methylene]amino}pyrimidine] | 67 to 68 |  |
| Cc1c(Cl)nc(N)nc1Cl [Substance 25, 2-amino-4,6-dichloro-5-methylpyrimidine] | 189 to 190 |  |
| CCCCc1c(Cl)nc(N)nc1Cl [Substance 28, 2-amino-5-butyl-4,6-dichloropyrimidine] | 169 to 170 |  |
| CC(C)c1c(Cl)nc(N)nc1Cl [Substance 29, 2-amino-4,6-dichloro-5-isopropylpyrimidine] | 175 to 176 |  |
| CCC(C)c1c(Cl)nc(N)nc1Cl (stereo not drawn) [Substance 30, 2-amino-5-(sec-butyl)-4,6-dichloropyrimidine] | 159 to 160 |  |
| C=CCc1c(Cl)nc(N)nc1Cl [Substance 32, 5-allyl-2-amino-4,6-dichloropyrimidine] | 175 to 177 |  |
| C#CCc1c(Cl)nc(N)nc1Cl [Substance 33, 2-amino-4,6-dichloro-5-(prop-2-yn-1-yl)pyrimidine] | 159 to 161 |  |
| Nc1nc(Cl)c(Cc2ccccc2)c(Cl)n1 [Substance 34, 2-amino-5-benzyl-4,6-dichloropyrimidine] | 196 to 197 |  |
| [2H]C([2H])([2H])C([2H])([2H])C([2H])([2H])C([2H])([2H])c1c(Cl)nc(N)nc1Cl [Substance 35, 2-amino-5-(perdeutero-butyl)-4,6-dichloropyrimidine] | 170 to 171 |  |
| Cc1c(Cl)nc(NC=O)nc1Cl [Substance 48, 4,6-dichloro-2-formamido-5-methylpyrimidine] | 123 to 124 |  |

| Compound | melting point [°C] | also measured |
| --- | --- | --- |
| CCc1c(Cl)nc(NC=O)nc1Cl [Substance 49, 4,6-dichloro-5-ethyl-2-formamidopyrimidine] | 116 to 118 |  |
| CCCc1c(Cl)nc(NC=O)nc1Cl [Substance 50, 4,6-dichloro-2-formamido-5-propylpyrimidine] | 92 to 94 |  |
| CCCCc1c(Cl)nc(NC=O)nc1Cl [Substance 51, 5-butyl-4,6-dichloro-2-formamidopyrimidine] | 82 to 83 |  |
| [2H]C([2H])([2H])C([2H])([2H])C([2H])([2H])C([2H])([2H])c1c(Cl)nc(NC=O)nc1Cl [Substance 52, 5-(perdeutero-butyl)-4,6-dichloro-2-formamidopyrimidine] | 83 to 84 |  |
| CC(C)c1c(Cl)nc(NC=O)nc1Cl [Substance 53, 4,6-dichloro-2-formamido-5-isopropylpyrimidine] | 95 to 96 |  |
| CCC(C)c1c(Cl)nc(NC=O)nc1Cl (stereo not drawn) [Substance 54, 5-(sec-butyl)-4,6-dichloro-2-formamidopyrimidine] | 92 to 93 |  |
| CCCCCCc1c(Cl)nc(NC=O)nc1Cl [Substance 55, 4,6-dichloro-2-formamido-5-hexylpyrimidine] | 80 to 81 |  |
| C=CCc1c(Cl)nc(NC=O)nc1Cl [Substance 57, 5-allyl-4,6-dichloro-2-formamidopyrimidine] | 85 to 86 |  |
| C#CCc1c(Cl)nc(NC=O)nc1Cl [Substance 58, 4,6-dichloro-2-formamido-5-(prop-2-yn-1-yl)pyrimidine] | 127 to 128 |  |
| C=C(Cl)Cc1c(Cl)nc(NC=O)nc1Cl [Substance 60, 4,6-dichloro-5-(2-chloroallyl)-2-formamidopyrimidine] | 113 to 115 |  |
| CCCCc1c(Cl)ncnc1Cl [Substance 61, 5-butyl-4,6-dichloropyrimidine] | 62 to 63 |  |
| CCCCc1c(Cl)nc(C)nc1Cl [Substance 62, 5-butyl-4,6-dichloro-2-methylpyrimidine] | 50 to 51 |  |
| CCCCc1c(Cl)nc(N(C)C)nc1Cl [Substance 63, 5-butyl-4,6-dichloro-2-(dimethylamino)pyrimidine] | 42 to 45 |  |
| CCCCc1c(Cl)nc(O)nc1Cl [Substance 65, 5-butyl-4,6-dichloro-2-hydroxypyrimidine] | 73 to 75 |  |
| CCCCc1c(Cl)nc(Sc2ccccc2)nc1Cl [Substance 148] |  | Production of nitric oxide in % of the controls [1]: 61.85 ± 10.25; =10 % of the controls; Production of prostaglandins IC50 (μmol · 1^−1) average value and range of values [2]: 77.50 ± 16.19; n = 4 μmol · 1^−1; Cell viabilities in % of the controls (peritoneal cells of mice): 90.49 ± 4.62; n = 12 % of the controls |
| CCCCc1c(Cl)nc(S)nc1Cl [Substance 149] |  | Production of nitric oxide in % of the controls [1]: 24.12 ± 11.22; n = 6 % of the controls; Production of prostaglandins IC50 (μmol · 1^−1) average value and range of values [2]: 26.35 ± 10.89; n = 4 μmol · 1^−1; Cell viabilities in % of the controls (peritoneal cells of mice): 99.14 ± 6.73; n = 8 % of the controls |

Now from value to compound, other results behind:

| melting point [°C] | Compound | also measured |
| --- | --- | --- |
| 63 to 65 | CN(C)/C=N/c1nc(Cl)c(Cc2ccccc2)c(Cl)n1 [Substance 23, 5-benzyl-4,6-dichloro-2-{[(dimethylamino)methylene]amino}pyrimidine] |  |
| 67 to 68 | CN(C)/C=N/c1nc(Cl)c(-c2ccccc2)c(Cl)n1 [Substance 24, 4,6-dichloro-2-{[(dimethylamino)methylene]amino}-5-phenylpyrimidine] |  |
| 183 to 185 | CCc1c(Cl)nc(N)nc1Cl [Substance 26, 2-amino-4,6-dichloro-5-ethylpyrimidine] |  |
| 182 to 183 | CCCc1c(Cl)nc(N)nc1Cl [Substance 27, 2-amino-4,6-dichloro-5-propylpyrimidine] |  |
| 193 to 195 | Nc1nc(Cl)c(-c2ccccc2)c(Cl)n1 [Substance 31, 2-amino-4,6-dichloro-5-phenylpyrimidine] |  |
| 173 to 174 | CCC(C)c1c(I)nc(N)nc1I (stereo not drawn) [Substance 36, 2-amino-5-(sec-butyl)-4,6-diiodopyrimidine] |  |
| 198 to 199 | Nc1nc(I)c(Cc2ccccc2)c(I)n1 [Substance 38, 2-amino-5-benzyl-4,6-diiodopyrimidine] |  |
| 154 to 155 | Nc1nc(Br)c(Cc2ccccc2)c(Br)n1 [Substance 40, 2-amino-5-benzyl-4,6-dibromopyrimidine] |  |
| 183 to 185 | CCCCc1c(Cl)nc(N)nc1-c1ccccc1 [Substance 41, 2-amino-5-butyl-4-chloro-6-phenylpyrimidine] |  |
| 154 to 155 | CCCCc1c(Cl)nc(N)nc1-c1ccsc1 [Substance 42, 2-amino-5-butyl-4-chloro-6-(thiophen-3-yl)pyrimidine] |  |
| 189 to 190 | CCCCc1c(Cl)nc(N)nc1-c1cccnc1 [Substance 43, 2-amino-5-butyl-4-chloro-6-(pyridin-3-yl)pyrimidine] |  |
| 195 to 196 | CCCCc1c(Cl)nc(N)nc1-c1cc2ccccc2o1 [Substance 44, 2-amino-4-(benzofuran-2-yl)-5-butyl-6-chloropyrimidine] |  |
| 154 to 155 | CCCCc1c(-c2ccccc2)nc(N)nc1-c1ccccc1 [Substance 45, 2-amino-5-butyl-4,6-diphenylpyrimidine] |  |
| 173 to 174 | CCCCc1c(-c2cccnc2)nc(N)nc1-c1cccnc1 [Substance 46, 2-amino-5-butyl-4,6-bis(pyridin-3-yl)pyrimidine] |  |
| 142 to 144 | CCCCc1c(-c2cc3ccccc3o2)nc(N)nc1-c1cc2ccccc2o1 [Substance 47, 2-amino-4,6-bis(benzofuran-2-yl)-5-butylpyrimidine] |  |
| 95 to 96 | O=CNc1nc(Cl)c(-c2ccccc2)c(Cl)n1 [Substance 56, 4,6-dichloro-2-formamido-5-phenylpyrimidine] |  |
| 93 to 95 | O=CNc1nc(Cl)c(Cc2ccccc2)c(Cl)n1 [Substance 59, 5-benzyl-4,6-dichloro-2-formamidopyrimidine] |  |
